The test addresses T1, GCS (Canis lupus familiaris, UniProt A0A8I3MXG6).
T1 construct: endogenous in cells; host or cells: MDCK (Madin-Darby canine kidney) cells, whole-cell lysate
T1 sequence (A0A8I3MXG6 1-394): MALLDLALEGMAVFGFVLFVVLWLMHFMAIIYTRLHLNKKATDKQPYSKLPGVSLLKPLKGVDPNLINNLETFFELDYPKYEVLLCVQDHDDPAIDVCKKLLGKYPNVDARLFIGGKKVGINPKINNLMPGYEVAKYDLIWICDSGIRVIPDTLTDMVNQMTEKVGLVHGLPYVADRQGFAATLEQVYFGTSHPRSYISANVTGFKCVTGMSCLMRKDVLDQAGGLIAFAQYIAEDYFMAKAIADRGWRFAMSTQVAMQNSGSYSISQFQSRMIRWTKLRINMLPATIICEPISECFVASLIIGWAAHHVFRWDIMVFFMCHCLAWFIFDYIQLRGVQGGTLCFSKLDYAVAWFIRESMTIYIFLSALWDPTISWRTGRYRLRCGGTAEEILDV
Description: GCS enzymatic assay (MDCK cell lysate, NBD-ceramide to glucosylceramide, LC/MS). Format: biochemical, canine. As to conditions: Table 2, the table does not say which of the assays; for IC50: class symbols A, B, C, read-out: Data Range (IC50 values); for Data Range (% inhibition): class symbols D, E, F, NA (not active). The protocol: This assay was modified based on the study by Larsen et al. (J. Lipid Res. 2011, 53, 282). Madin-Darby canine kidney (MDCK) cell lysate was prepared using M-PER Mammalian Protein Extraction Reagent (Thermal Scientific) in the presence of a protease inhibitor cocktail (Roche). Protein concentration was determined using BCA assay kit (Pierce). […] 0.1% DMSO was used as mock treatment or control. The reaction was terminated by adding 100 μL acetonitrile solution and subjected to LC/MS analysis.
The quantitative analysis of NBD-Ceramide and glucosylceramide was performed on a Shimadzu ultra-fast liquid chromatography (Shimadzu, Japan) coupled with API 4000 triple quadrupole mass spectrometer (Applied Biosystems, Concord, Ontario, Canada). Sample separation was conducted on a Waters Xbridge™ BEH130 C18, 100 mm×4.6 mm i.d, 3.5 μm (Milford, Mass., USA). The mobile phase consisted of water and acetonitrile supplemented with 0.1% formic acid (v/v). The flow rate was 1.0 mL/min. The initial mobile phase was 20% acetonitrile and was ramped in a linear fashion to 50% acetonitrile in 0.4 min. From 0.4 to 1.5 min, the gradient was ramped to 98% acetonitrile, and then was held at […] until 8.0 min. Acetonitrile was reset to 20% in 1.5 min, and maintained until 10.0 min. The total run time was 10.0 min. The MS/MS detection was performed in ESI positive mode. The mass transition of NBD-Ceramide was m/z 576.36→558.40 under the collision energy of 15 V, and the mass transition of glucosylceramide was m/z 738.35→558.40 under 21V collision energy. The cell lysate was diluted with equal volume of acetonitrile. Aliquots of 50 μL diluted samples were added to 1.5 mL tubes, and 100 μL of acetonitrile containing internal standard (100 ng/mL tolbutamide) were added for protein precipitation. The mixture were vortexed and then centrifuged at 13000 rpm for 10 min. 70 μL of supernatant were mixed with 140 μL of H2O and the final solution were injected for LC/MS/MS analysis and IC50's and/or percent inhibitions calculated.

Structures are written as SMILES.

These results are taken from patent publication US10239832B2, “N-(1-hydroxy-3-(pyrrolidinyl)propan-2-yl)pyrrolidine-3-carboxamide derivatives as glucosylceramide synthase inhibitors” (BIOMARIN PHARMACEUTICAL INC., priority 2013, dated 2019).

For the compound `O=C(N[C@H](CN1CCCC1)[C@H](O)c1ccc(OC2CC2)c(Cl)c1)C1CCN(c2ccc(Cl)cc2)C1` (stereo in doubt) [Compound 3, (S)-N-((1R,2R)-1-(3-chloro-4-cyclopropoxyphenyl)-1-hydroxy-3-(pyrrolidin-1-yl)propan-2-yl)-1-(4-chlorophenyl)pyrrolidine-3-carboxamide], the IC50 fell in the range of 1 to 30 nM.
With `O=C(N[C@H](CN1CCCC1)[C@H](O)c1ccc(OC2CC2)c(Cl)c1)C1CCN(c2ccc(Cl)cc2)C1` (stereo in doubt) [Compound 3B, (R)-N-((1R,2R)-1-(3-chloro-4-cyclopropoxyphenyl)-1-hydroxy-3-(pyrrolidin-1-yl)propan-2-yl)-1-(4-chlorophenyl)pyrrolidine-3-carboxamide], the “Data Range (% inhibition)” value is reported as “F (1-49% (or less than 50%))”.
As to `O=C(N[C@H](CN1CCCC1)[C@H](O)c1ccc2c(c1)OCCO2)C1CCN(c2ccc(Cl)c(Cl)c2)C1` (stereo in doubt) [Compound 8, (R)-1-(3,4-dichlorophenyl)-N-((1R,2R)-1-(2,3-dihydrobenzo[b][1,4]dioxin-6-yl)-1-hydroxy-3-(pyrrolidin-1-yl)propan-2-yl)pyrrolidine-3-carboxamide], the “Data Range (% inhibition)” value was “D (75-100%)”.
Turning to `O=C(N[C@H](CN1CCCC1)[C@H](O)c1ccc2c(c1)OCCO2)C1CCN(c2ccc(Cl)c(Cl)c2)C1` (stereo in doubt) [Compound 8D, (S)-1-(3,4-dichlorophenyl)-N-((1R,2R)-1-(2,3-dihydrobenzo[b][1,4]dioxin-6-yl)-1-hydroxy-3-(pyrrolidin-1-yl)propan-2-yl)pyrrolidine-3-carboxamide], the “Data Range (% inhibition)” value was “E (50-74% (or less than 75%))”.
Regarding `O=C(N[C@H](CN1CCCC1)[C@H](O)c1ccc2c(c1)OCCO2)C1CCN(c2ccc(Cl)cc2Cl)C1` (stereo in doubt) [Compound 12, (R)-1-(2,4-dichlorophenyl)-N-((1R,2R)-1-(2,3-dihydrobenzo[b][1,4]dioxin-6-yl)-1-hydroxy-3-(pyrrolidin-1-yl)propan-2-yl)pyrrolidine-3-carboxamide], the IC50 is 1 to 30 nM.
Take `O=C(N[C@H](CN1CCCC1)[C@H](O)c1ccc2c(c1)OCCO2)C1CCN(c2ccc(Cl)cc2Cl)C1` (stereo in doubt) [Compound 12D, (S)-1-(2,4-dichlorophenyl)-N-((1R,2R)-1-(2,3-dihydrobenzo[b][1,4]dioxin-6-yl)-1-hydroxy-3-(pyrrolidin-1-yl)propan-2-yl)pyrrolidine-3-carboxamide]: the “Data Range (% inhibition)” value is recorded as “F (1-49% (or less than 50%))”.
Regarding `O=C(N[C@H](CN1CCCC1)[C@H](O)c1ccc2c(c1)OCCO2)C1CCN(c2ccc3cc(F)ccc3c2)C1` (stereo in doubt) [Compound 14, (S)-N-((1R,2R)-1-(2,3-dihydrobenzo[b][1,4]dioxin-6-yl)-1-hydroxy-3-(pyrrolidin-1-yl)propan-2-yl)-1-(6-fluoronaphthalen-2-yl)pyrrolidine-3-carboxamide], the IC50 was in the range of 1 to 30 nM.
As for `O=C(N[C@H](CN1CCCC1)[C@H](O)c1ccc2c(c1)OCCO2)C1CCN(c2ccc3cc(F)ccc3c2)C1` (stereo in doubt) [Compound 14D, (R)-N-((1R,2R)-1-(2,3-dihydrobenzo[b][1,4]dioxin-6-yl)-1-hydroxy-3-(pyrrolidin-1-yl)propan-2-yl)-1-(6-fluoronaphthalen-2-yl)pyrrolidine-3-carboxamide], the “Data Range (% inhibition)” value was “F (1-49% (or less than 50%))”.
For `CC(C)Oc1ccc(C(O)[C@@H](CN2CCCC2)NC(=O)[C@H]2CCN(c3ccc(F)cc3)C2)cn1` (stereo in doubt) [Compound 31B, (S)-1-(4-fluorophenyl)-N-((1S,2R)-1-hydroxy-1-(6-isopropoxypyridin-3-yl)-3-(pyrrolidin-1-yl)propan-2-yl)pyrrolidine-3-carboxamide], the “Data Range (% inhibition)” value is reported as “E (50-74% (or less than 75%))”.
On the same count and under the same terms, for `O=C(NC(CN1CCCC1)[C@H](O)c1cc(F)c2c(c1)OCCO2)[C@H]1CCN(c2ccc3ccccc3n2)C1` (stereo in doubt) [Compound 68C, (S)-N-((1R,2S)-1-(8-fluoro-2,3-dihydrobenzo[b][1,4]dioxin-6-yl)-1-hydroxy-3-(pyrrolidin-1-yl)propan-2-yl)-1-(quinolin-2-yl)pyrrolidine-3-carboxamide] the value was “F (1-49% (or less than 50%))”.
As to `N#Cc1ccc(N2CCC(C(=O)N[C@H](CN3CCCC3)C(O)c3ccc(OC4CC4)c(Cl)c3)C2)cc1` (stereo in doubt) [Compound 152C, (R)-N-((1S,2R)-1-(3-chloro-4-cyclopropoxyphenyl)-1-hydroxy-3-(pyrrolidin-1-yl)propan-2-yl)-1-(4-cyanophenyl)pyrrolidine-3-carboxamide], the IC50 is 30 to 100 nM.
The same measure, in the same setting: for `O=C(N[C@H](CN1CCCC1)[C@H](O)c1ccc2c(c1)OCCO2)[C@@H]1CCN(c2ccc(Cl)cc2)C1` [Compound 1, (R)-1-(4-chlorophenyl)-N-((1R,2R)-1-(2,3-dihydrobenzo[b][1,4]dioxin-6-yl)-1-hydroxy-3-(pyrrolidin-1-yl)propan-2-yl)pyrrolidine-3-carboxamide] the value was 1 to 30 nM; for `O=C(N[C@H](CN1CCCC1)[C@H](O)c1ccc2c(c1)OCCO2)C1CCN(c2ccc(Cl)cc2)C1` (stereo partly drawn) [Compound 1C, 1-(4-chlorophenyl)-N-((1R,2R)-1-(2,3-dihydrobenzo[b][1,4]dioxin-6-yl)-1-hydroxy-3-(pyrrolidin-1-yl)propan-2-yl)pyrrolidine-3-carboxamide], 1 to 30 nM; for `O=C(N[C@H](CN1CCCC1)[C@H](O)c1ccc2c(c1)OCCO2)[C@H]1CCN(c2ccc(Cl)cc2)C1` [Compound 1D, (S)-1-(4-chlorophenyl)-N-((1R,2R)-1-(2,3-dihydrobenzo[b][1,4]dioxin-6-yl)-1-hydroxy-3-(pyrrolidin-1-yl)propan-2-yl)pyrrolidine-3-carboxamide], 30 to 100 nM.
Take `O=C(N[C@H](CN1CCCC1)[C@H](O)c1cc(F)c2c(c1)OCCO2)[C@@H]1CCN(c2ccc(Cl)cc2)C1` [Compound 2, (R)-1-(4-chlorophenyl)-N-((1R,2R)-1-(8-fluoro-2,3-dihydrobenzo[b][1,4]dioxin-6-yl)-1-hydroxy-3-(pyrrolidin-1-yl)propan-2-yl)pyrrolidine-3-carboxamide]: the IC50 was 1 to 30 nM.
For `O=C(N[C@H](CN1CCCC1)[C@H](O)c1cc(F)c2c(c1)OCCO2)C1CCN(c2ccc(Cl)cc2)C1` (stereo partly drawn) [Compound 2A, 1-(4-chlorophenyl)-N-((1R,2R)-1-(8-fluoro-2,3-dihydrobenzo[b][1,4]dioxin-6-yl)-1-hydroxy-3-(pyrrolidin-1-yl)propan-2-yl)pyrrolidine-3-carboxamide], the IC50 was in the range of 1 to 30 nM.
On to `O=C(N[C@H](CN1CCCC1)[C@H](O)c1cc(F)c2c(c1)OCCO2)[C@H]1CCN(c2ccc(Cl)cc2)C1` [Compound 2B, (S)-1-(4-chlorophenyl)-N-((1R,2R)-1-(8-fluoro-2,3-dihydrobenzo[b][1,4]dioxin-6-yl)-1-hydroxy-3-(pyrrolidin-1-yl)propan-2-yl)pyrrolidine-3-carboxamide], for which the “Data Range (% inhibition)” value was “F (1-49% (or less than 50%))”.
For `O=C(N[C@H](CN1CCCC1)[C@H](O)c1ccc(OC2CC2)c(Cl)c1)C1CCN(c2ccc(Cl)cc2)C1` (stereo partly drawn) [Compound 3A, N-((1R,2R)-1-(3-chloro-4-cyclopropoxyphenyl)-1-hydroxy-3-(pyrrolidin-1-yl)propan-2-yl)-1-(4-chlorophenyl)pyrrolidine-3-carboxamide], the IC50 was 30 to 100 nM.
As to `O=C(N[C@H](CN1CCCC1)[C@H](O)c1ccc2c(c1)OCCO2)[C@@H]1CCN(CC2(O)CCOCC2)C1` [Compound 5, (R)-N-((1R,2R)-1-(2,3-dihydrobenzo[b][1,4]dioxin-6-yl)-1-hydroxy-3-(pyrrolidin-1-yl)propan-2-yl)-1-((4-hydroxytetrahydro-2H-pyran-4-yl)methyl)pyrrolidine-3-carboxamide], the “Data Range (% inhibition)” value is given as “F (1-49% (or less than 50%))”.
